Experimental data taken from ChEMBL document CHEMBL1156067, “Pyrimidine-based antagonists of h-MCH-R1 derived from ATC0175: in vitro profiling and in vivo evaluation” (Bioorg Med Chem Lett, 2009).
Activity calls are given as the source filed them. The rule behind the calls is not given here.

How the values were obtained:
[1] = biological target: T1, Melanin-concentrating hormone receptor 1 (Homo sapiens, UniProt Q99705); assay: Antagonist activity at CART form of human MCH1 receptor expressed in HEK293 cells coexpressing Galphaq assessed as inhibition of MCH-induced intracellular calcium level up to 10 uM by FLIPR assay; type: functional, cell-based
Target sequence in this assay (Q99705 whole entry): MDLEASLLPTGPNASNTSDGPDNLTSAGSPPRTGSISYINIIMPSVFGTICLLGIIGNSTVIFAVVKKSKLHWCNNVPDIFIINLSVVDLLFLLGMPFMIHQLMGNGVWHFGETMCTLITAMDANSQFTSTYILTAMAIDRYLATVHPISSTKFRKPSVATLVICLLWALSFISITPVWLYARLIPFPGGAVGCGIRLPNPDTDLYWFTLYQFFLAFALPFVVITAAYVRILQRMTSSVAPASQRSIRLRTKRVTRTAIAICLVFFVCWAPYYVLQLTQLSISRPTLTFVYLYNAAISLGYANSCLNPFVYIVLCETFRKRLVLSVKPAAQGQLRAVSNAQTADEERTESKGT

[2] = Drug level in Sprague-Dawley rat brain at 10 mg/kg, po after 2 hrs; type: ADME, organism-based; set-up: dose 10 mg/kg, route oral
Rattus norvegicus [3] = assay: Reduction in food intake in diet-induced obese Wistar rat chronic feeding model at 5 mg/kg, po once daily after 28 days; type: functional, organism-based; set-up: dose 5 mg/kg
Rattus norvegicus [4] = assay: Reduction in food intake in diet-induced obese Wistar rat chronic feeding model at 10 mg/kg, po once daily after 2 days; type: functional, organism-based; set-up: dose 10 mg/kg
Histamine H1 receptor = Histamine H1 receptor (Homo sapiens, UniProt P35367); assay: Displacement of [3H]pyrilamine from human histamine H1 receptor
Rattus norvegicus [5] = assay: Reduction in body weight in diet-induced obese Wistar rat chronic feeding model at 15 mg/kg, po once daily after 14 days relative to control; type: functional; set-up: scale not given: the % may be the effect or the level left
[6] = biological target: T1, Melanin-concentrating hormone receptor 1; assay: Antagonist activity at CART form of human MCH1 receptor expressed in HEK293 cells coexpressing Galphaq assessed as inhibition of MCH-induced intracellular calcium level by FLIPR assay; type: functional, cell-based
Target sequence in this assay (Q99705 whole entry, looked up): as the sequence (Q99705 whole entry) above

[7] = biological target: T2, 5-hydroxytryptamine receptor 2B (Homo sapiens, UniProt P41595); assay: Displacement of [3H]rauwolsine from human 5HT2B receptor
[8] = Drug level in Sprague-Dawley rat brain at 10 mg/kg, po after 4 hrs; type: ADME, organism-based; set-up: dose 10 mg/kg, route oral
[9] = biological target: T3, Alpha-1A adrenergic receptor (Homo sapiens, UniProt P35348); assay: Displacement of [3H]prazosin from human adrenergic alpha1A receptor
T3 sequence (P35348 whole entry): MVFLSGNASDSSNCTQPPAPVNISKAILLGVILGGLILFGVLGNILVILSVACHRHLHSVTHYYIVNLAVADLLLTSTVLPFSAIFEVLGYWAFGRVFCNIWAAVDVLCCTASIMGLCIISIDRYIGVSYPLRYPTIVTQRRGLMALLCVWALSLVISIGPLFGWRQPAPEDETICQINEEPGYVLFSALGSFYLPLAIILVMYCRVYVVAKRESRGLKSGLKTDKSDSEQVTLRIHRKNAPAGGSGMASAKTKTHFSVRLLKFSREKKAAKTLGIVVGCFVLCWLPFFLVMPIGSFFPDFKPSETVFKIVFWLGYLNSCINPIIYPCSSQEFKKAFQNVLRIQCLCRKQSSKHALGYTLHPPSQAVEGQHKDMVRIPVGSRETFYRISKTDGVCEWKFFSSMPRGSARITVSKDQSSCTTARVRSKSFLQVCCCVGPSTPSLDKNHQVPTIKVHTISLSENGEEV

[10] = biological target: T4, Alpha-2A adrenergic receptor (Homo sapiens, UniProt P08913); assay: Displacement of [3H]MK-912 from human adrenergic alpha2A receptor
T4 sequence (P08913 whole entry): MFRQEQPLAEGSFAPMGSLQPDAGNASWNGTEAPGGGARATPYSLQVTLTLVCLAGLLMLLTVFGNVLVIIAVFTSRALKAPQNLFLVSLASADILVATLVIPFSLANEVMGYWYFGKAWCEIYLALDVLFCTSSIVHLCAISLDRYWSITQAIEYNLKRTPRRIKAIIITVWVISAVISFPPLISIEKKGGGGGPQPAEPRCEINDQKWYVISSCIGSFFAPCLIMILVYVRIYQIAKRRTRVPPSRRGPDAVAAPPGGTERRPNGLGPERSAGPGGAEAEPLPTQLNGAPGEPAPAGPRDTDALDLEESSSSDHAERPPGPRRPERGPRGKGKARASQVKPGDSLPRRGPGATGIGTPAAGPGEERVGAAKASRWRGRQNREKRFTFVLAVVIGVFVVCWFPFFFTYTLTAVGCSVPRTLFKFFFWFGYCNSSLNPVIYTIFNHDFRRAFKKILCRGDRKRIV

Rattus norvegicus [11] = assay: Reduction in food intake in diet-induced obese Wistar rat chronic feeding model at 10 mg/kg, po once daily up to 28 days measured after 2 weeks of recovery period; type: functional, organism-based; set-up: dose 10 mg/kg
Rattus norvegicus [12] = assay: Reduction in food intake in diet-induced obese Wistar rat chronic feeding model at 1 mg/kg, po once daily after 28 days; type: functional, organism-based; set-up: dose 1 mg/kg
Rattus norvegicus [13] = assay: Reduction in body weight in diet-induced obese Wistar rat chronic feeding model at 10 mg/kg, po once daily up to 28 days measured after 2 weeks of recovery period; type: functional, organism-based; set-up: dose 10 mg/kg
Rattus norvegicus [14] = assay: Reduction in body weight in diet-induced obese Wistar rat chronic feeding model at 5 mg/kg, po once daily after 28 days relative to control; type: functional; set-up: scale not given: the % may be the effect or the level left
[15] = biological target: T5, 5-hydroxytryptamine receptor 1A (Homo sapiens, UniProt P08908); assay: Inhibition of human 5HT1A
T5 sequence (P08908 whole entry): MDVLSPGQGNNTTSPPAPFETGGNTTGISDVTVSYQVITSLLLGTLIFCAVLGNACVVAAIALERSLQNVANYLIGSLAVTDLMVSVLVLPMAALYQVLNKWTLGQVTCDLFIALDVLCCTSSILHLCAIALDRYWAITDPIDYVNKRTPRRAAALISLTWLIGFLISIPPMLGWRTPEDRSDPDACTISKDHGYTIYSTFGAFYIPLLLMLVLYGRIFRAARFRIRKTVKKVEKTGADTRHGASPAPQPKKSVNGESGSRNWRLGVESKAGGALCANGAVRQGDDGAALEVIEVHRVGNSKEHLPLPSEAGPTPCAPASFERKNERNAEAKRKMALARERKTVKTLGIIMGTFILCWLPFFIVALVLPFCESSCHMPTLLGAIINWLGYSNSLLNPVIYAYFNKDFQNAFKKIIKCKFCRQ

Rattus norvegicus [16] = assay: Reduction in body weight in diet-induced obese Wistar rat chronic feeding model at 10 mg/kg, po once daily after 28 days relative to control; type: functional; set-up: scale not given: the % may be the effect or the level left
Rattus norvegicus [17] = assay: Reduction in body weight in diet-induced obese Wistar rat chronic feeding model at 1 mg/kg, po once daily after 28 days; type: functional, organism-based; set-up: dose 1 mg/kg
[18] = Plasma concentration in Sprague-Dawley rat at 10 mg/kg, po after 2 hrs; type: ADME, organism-based; set-up: dose 10 mg/kg, route oral
Rattus norvegicus [19] = assay: Toxicity in rat at 100 mg/kg, po once daily after 14 days; details: in vivo, 336 h
[20] = Plasma concentration in Sprague-Dawley rat at 10 mg/kg, po after 4 hrs; type: ADME, organism-based; set-up: dose 10 mg/kg, route oral
Rattus norvegicus [21] = assay: Reduction in food intake in diet-induced obese Wistar rat chronic feeding model at 15 mg/kg, po once daily after 3 days; type: functional, organism-based; set-up: dose 15 mg/kg
Rattus norvegicus [22] = assay: Reduction in food intake in diet-induced obese Wistar rat chronic feeding model at 15 mg/kg, po once daily up to 14 days measured after recovery period; type: functional, organism-based; set-up: dose 15 mg/kg
Rattus norvegicus [23] = assay: Reduction in body weight in diet-induced obese Wistar rat chronic feeding model at 15 mg/kg, po once daily up to 14 days measured after recovery period; type: functional, organism-based; set-up: dose 15 mg/kg
[24] = biological target: T2, 5-hydroxytryptamine receptor 2B; assay: Displacement of [125I]LSD from human 5HT2B receptor
[25] = Ratio of drug level in brain to plasma in po dosed rat; type: ADME, organism-based

Chain of Histamine H1 receptor (P35367 whole entry): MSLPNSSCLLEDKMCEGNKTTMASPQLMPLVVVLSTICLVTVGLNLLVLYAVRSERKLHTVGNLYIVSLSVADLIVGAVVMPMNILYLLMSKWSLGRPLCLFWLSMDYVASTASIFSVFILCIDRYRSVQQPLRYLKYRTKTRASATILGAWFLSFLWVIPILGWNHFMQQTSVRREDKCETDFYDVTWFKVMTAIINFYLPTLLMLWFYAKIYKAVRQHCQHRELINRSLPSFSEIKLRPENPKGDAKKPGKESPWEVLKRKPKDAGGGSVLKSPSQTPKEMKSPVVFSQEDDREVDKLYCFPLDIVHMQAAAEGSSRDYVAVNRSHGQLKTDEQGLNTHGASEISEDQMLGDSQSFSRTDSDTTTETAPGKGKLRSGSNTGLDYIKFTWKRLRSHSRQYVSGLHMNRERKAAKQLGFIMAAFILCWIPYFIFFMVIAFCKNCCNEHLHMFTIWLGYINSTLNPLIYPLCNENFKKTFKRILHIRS
T2 sequence (P41595 whole entry): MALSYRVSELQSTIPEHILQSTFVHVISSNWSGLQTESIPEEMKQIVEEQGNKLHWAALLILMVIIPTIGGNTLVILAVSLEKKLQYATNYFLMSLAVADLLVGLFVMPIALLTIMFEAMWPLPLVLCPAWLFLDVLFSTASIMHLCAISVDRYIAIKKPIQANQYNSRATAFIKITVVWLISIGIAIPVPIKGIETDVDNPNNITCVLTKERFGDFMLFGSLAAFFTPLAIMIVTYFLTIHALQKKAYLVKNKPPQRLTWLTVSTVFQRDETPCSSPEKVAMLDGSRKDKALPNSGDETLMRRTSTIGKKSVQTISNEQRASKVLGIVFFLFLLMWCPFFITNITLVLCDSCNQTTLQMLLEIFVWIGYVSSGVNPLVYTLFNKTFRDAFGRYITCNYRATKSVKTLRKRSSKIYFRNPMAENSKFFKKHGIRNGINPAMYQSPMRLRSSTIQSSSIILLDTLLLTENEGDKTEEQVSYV

Row | IC50 (Histamine H1 receptor) [nM] | IC50 [6] [nM] | IC50 [7] [nM] | IC50 [9] [µM] | IC50 [10] [nM] | Compound | other results
1 | 800 | 16 | 170 | 3 | 730 | Cc1cc(N(C)C)nc(N[C@H]2CC[C@@H](NC(=O)c3ccc(Cl)cc3)CC2)n1 | 
2 |  | 210 |  |  |  | Cc1cc(N(C)C)nc(N[C@H]2CC[C@@H](CNC(=O)c3ccc(F)c(F)c3)CC2)n1 | 
3 | 810 | 6 | 300 | 7.5 | 470 | Cc1cnc(N[C@H]2CC[C@@H](NC(=O)c3ccc(F)cc3)CC2)nc1N(C)C | 
4 | 760 | 10 | 300 | > 10 | 1590 | Cc1cnc(N[C@H]2CC[C@@H](NC(=O)c3ccc(Cl)cc3)CC2)nc1N(C)C | 
5 | 1600 | 2.9 | 31 | 2.79 | 580 | Cc1cccc(C(=O)N[C@H]2CC[C@@H](Nc3ncc(C)c(N(C)C)n3)CC2)c1 | 
6 |  | 2.5 |  |  |  | Cc1cc(N(C)C)nc(N[C@H]2CC[C@@H](NC(=O)c3ccc(F)c(F)c3)CC2)n1 | 
7 |  | 46 |  |  |  | CCN(C)c1nc(N[C@H]2CC[C@@H](NC(=O)c3ccc(F)c(F)c3)CC2)ncc1C | 
8 | 150 |  | 150 | 0.3 | 104 | CN(C)c1nc(N[C@H]2CC[C@@H](NC(=O)c3ccc(F)c(F)c3)CC2)nc2ccccc12 | concentration at 2 h [2]: 55 ng/g; IC50 [24]: 9.66 nM; concentration at 4 h [8]: 70 ng/g; IC50 [15]: 16.9 nM; Kp [25]: 0.5; concentration at 2 h [18]: 109 ng/mL; concentration at 4 h [20]: 101 ng/mL

Continued, compound first:

Row | Compound | IC50 (Histamine H1 receptor) [nM] | IC50 [6] [nM] | IC50 [7] [nM] | IC50 [9] [µM] | IC50 [10] [nM] | other results
9 | CCNc1nc(N[C@H]2CC[C@@H](CNC(=O)c3cc(C(F)(F)F)cc(C(F)(F)F)c3)CC2)ncc1C |  |  |  |  |  | Activity [1]: inactive
10 | Cc1cnc(N[C@H]2CC[C@@H](CNC(=O)c3cc(C(F)(F)F)cc(C(F)(F)F)c3)CC2)nc1N(C)C | > 10000 | 5 | 3100 | 3.2 | 310 | concentration at 2 h [2]: 9 ng/g; Activity (Rattus norvegicus [3]): inactive; Activity (Rattus norvegicus [4]): Active; Activity (Rattus norvegicus [5]): >15%; concentration at 4 h [8]: 10 ng/g; Activity (Rattus norvegicus [11]): inactive; Activity (Rattus norvegicus [12]): inactive; Activity (Rattus norvegicus [13]): inactive; Activity (Rattus norvegicus [14]): -5.4%; IC50 [15]: 4800 nM; Activity (Rattus norvegicus [16]): 17%; Activity (Rattus norvegicus [17]): inactive; concentration at 2 h [18]: 50 ng/mL; Activity (Rattus norvegicus [19]): Non-toxic; concentration at 4 h [20]: 63 ng/mL; Activity (Rattus norvegicus [21]): Active; Activity (Rattus norvegicus [22]): inactive; Activity (Rattus norvegicus [23]): inactive
11 | Cc1cc(N(C)C)nc(N[C@H]2CC[C@@H](CNC(=O)c3cc(Cl)cc(Cl)c3)CC2)n1 |  | 64 |  |  |  | 
12 | Cc1cnc(N[C@H]2CC[C@@H](CNC(=O)c3cc(C(F)(F)F)cc(C(F)(F)F)c3)CC2)nc1N |  | 600 |  |  |  | 
13 | Cc1cc(N(C)C)nc(N[C@H]2CC[C@@H](NC(=O)c3cc(C(F)(F)F)cc(C(F)(F)F)c3)CC2)n1 | 1210 | 8 | > 10000 | 1.32 | 200 | 
14 | CNc1nc(N[C@H]2CC[C@@H](NC(=O)c3ccc(F)c(F)c3)CC2)ncc1C |  |  |  |  |  | Activity [1]: inactive
15 | Cc1cnc(N[C@H]2CC[C@@H](CNC(=O)c3cc(C(F)(F)F)cc(C(F)(F)F)c3)CC2)nc1N1CCCC1 |  |  |  |  |  | Activity [1]: inactive
16 | COCC1=C(C(=O)OC)[C@H](c2ccc(F)c(F)c2)N(C(=O)NCCCN2CCC(c3cccc(NC(C)=O)c3)CC2)C(=O)N1 [SNAP-7941] |  |  |  |  |  | pA2 [6]: 9.24
17 | CN(C)CC1CCc2cc(NC(=O)c3ccc(-c4ccc(F)cc4)cc3)ccc2C1 (centres undefined) |  | 5.5 |  |  |  | 
18 | Cc1cc(N(C)C)nc(N[C@H]2CC[C@@H](NC(=O)c3ccc(Cl)c(Cl)c3)CC2)n1 | 390 | 4.8 | 130 | > 10 | 130 | 
